US20240158446A1, “CYCLIC COMPOUND HAVING SELECTIVE INHIBITORY ACTION ON KRAS OVER HRAS AND NRAS” (CHUGAI SEIYAKU KABUSHIKI KAISHA, priority 2021, published 2024)
Where two headings read alike, the source gives them in different places. *1 amine or outer side, *2 acyl side, *3 side chain or, on linkers, in order; H or OH if unused. Where a SMILES comes first, the peptide text is derived from it. Bridges are numbered along the chain shown (N, C = ends). [ ]: non-standard residue; d: D form. The star is where a group is joined. hPhe(3,5-F2-4-CF3) = N[C@@H](CCc1cc(F)c(C(F)(F)F)c(F)c1)C(=O)O; hPhe(3-Cl-4-CF3) = N[C@@H](CCc1ccc(C(F)(F)F)c(Cl)c1)C(=O)O; X23 = C=CCCN([C@@H](Cc1ccc(C(F)(F)F)cc1)C(=O)[*:2])[*:1]; NPrPhe(4-CF3) = CCCN[C@@H](Cc1ccc(C(F)(F)F)cc1)C(=O)O; NMeGly(cPent) = CN[C@H](C(=O)O)C1CCCC1; Pro(4,4-F2) = O=C(O)[C@@H]1CC(F)(F)CN1; Hyp = O=C(O)[C@@H]1C[C@@H](O)CN1; NMeD = CN[C@@H](CC(=O)O)C(=O)O; Ac4c(3-oxa) = NC1(C(=O)O)COC1; NMeL = CN[C@@H](CC(C)C)C(=O)O; Morpholide = C1CN(*)CCO1; NMeA = CN[C@@H](C)C(=O)O; Ac5c = NC1(C(=O)O)CCCC1; Aze = O=C(O)[C@@H]1CCN1; NcPrGly = O=C(O)CNC1CC1; Ac4c = NC1(C(=O)O)CCC1; Sar = CNCC(=O)O

Assays:
[1] = target: GDP-bound KRAS wild-type protein (Homo sapiens, UniProt P01116); experiment: Binding to KRAS by surface plasmon resonance (SPR), Single Cycle Kinetics; conditions: GDP-bound KRAS wild-type protein, read-out: KRAS KD
[2] = target: GDP-bound HRAS wild-type protein (Homo sapiens, UniProt P01112); experiment: Binding to HRAS by surface plasmon resonance (SPR), Single Cycle Kinetics; conditions: SPR, GDP-bound HRAS wild-type protein vs GDP-bound KRAS wild-type protein
[3] = target: GDP-bound NRAS wild-type protein (Homo sapiens, UniProt P01111); experiment: Binding to NRAS by surface plasmon resonance (SPR), Single Cycle Kinetics; conditions: SPR, GDP-bound NRAS wild-type protein vs GDP-bound KRAS wild-type protein
[4] = SPR Single Cycle Kinetics, 1:1 binding model

Chain of GDP-bound HRAS wild-type protein (P01112 whole entry): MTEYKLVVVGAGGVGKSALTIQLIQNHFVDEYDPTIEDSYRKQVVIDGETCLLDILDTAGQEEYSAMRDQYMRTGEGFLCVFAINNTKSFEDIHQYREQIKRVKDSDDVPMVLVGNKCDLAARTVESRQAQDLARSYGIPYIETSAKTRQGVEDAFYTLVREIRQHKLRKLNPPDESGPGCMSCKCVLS
Chain of GDP-bound NRAS wild-type protein (P01111 whole entry): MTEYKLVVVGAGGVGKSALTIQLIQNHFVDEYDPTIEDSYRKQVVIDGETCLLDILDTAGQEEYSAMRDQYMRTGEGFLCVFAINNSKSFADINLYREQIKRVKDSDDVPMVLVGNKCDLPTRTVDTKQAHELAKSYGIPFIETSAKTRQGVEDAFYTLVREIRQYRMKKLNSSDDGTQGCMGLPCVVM
Chain of GDP-bound KRAS wild-type protein (P01116 whole entry): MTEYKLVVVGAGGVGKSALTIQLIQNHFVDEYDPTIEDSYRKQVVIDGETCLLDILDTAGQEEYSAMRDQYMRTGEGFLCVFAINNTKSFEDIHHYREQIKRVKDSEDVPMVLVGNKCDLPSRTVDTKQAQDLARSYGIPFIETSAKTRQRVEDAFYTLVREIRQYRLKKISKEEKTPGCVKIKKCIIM

| SMILES | Kd ([1]; SPR, Single Cycle Kinetics) | Kd [1, 4] | HRAS/KRAS (ratio of KD value for HRAS to KD value for KRAS) [2] | NRAS/KRAS (ratio of KD value for NRAS to KD value for KRAS) [3] | HRAS/KRAS (ratio of KD value with respect to HRAS to KD value with respect to KRAS) [2] | NRAS/KRAS (ratio of KD value with respect to NRAS to KD value with respect to KRAS) [3] |
| --- | --- | --- | --- | --- | --- | --- |
| CCO[C@@H]1C[C@H]2C(=O)NC3(CCC3)C(=O)N(C)[C@@H](C3CCCC3)C(=O)N(CC)[C@H](C(=O)N3CCOCC3)CC(=O)N(C)[C@@H](COC)C(=O)N[C@@H]([C@@H](C)CC)C(=O)N(C)CC(=O)N(C)[C@H]3CCCCCN(C3=O)[C@@H](Cc3ccc(C(F)(F)F)cc3)C(=O)N(C)CC(=O)N[C@@H](CCc3cc(F)c(C(F)(F)F)c(F)c3)C(=O)N2C1 [PP0946] | 2200 pM |  | B (a compound having 3 or more and less than 10 is denoted as B) | A (a compound having 10 or more and less than 20 is denoted as A) |  |  |
| CCCN1C(=O)[C@@H]2CCN2C(=O)CN(C)C(=O)[C@H]([C@@H](C)CC)NC(=O)[C@H](CC(C)C)N(C)C(=O)C[C@@H](C(=O)N2CCOCC2)N(C)C(=O)[C@H](C2CCCC2)N(C)C(=O)C2(COC2)NC(=O)[C@@H]2CCCN2C(=O)[C@H](CCc2cc(F)c(C(F)(F)F)c(F)c2)NC(=O)CN(C)C(=O)[C@@H]1Cc1ccc(C(F)(F)F)cc1 [PP0801] ([NMeL]I[Sar][Aze][NPrPhe(4-CF3)][Sar][hPhe(3,5-F2-4-CF3)]P[Ac4c(3-oxa)][NMeGly(cPent)][NMeD]-Morpholide; lactam N-11) |  | 450 pM |  |  | B (a compound having 3 or more and less than 10 is denoted as B) | C (A compound having a KD ratio of 0.1 or more and less than 3 is denoted as C) |
| CCCN1C(=O)[C@@H]2CCN2C(=O)CN(C2CC2)C(=O)[C@H]([C@@H](C)CC)NC(=O)[C@H](CC(C)C)N(C)C(=O)C[C@@H](C(=O)N2CCOCC2)N(C)C(=O)[C@H](C2CCCC2)N(C)C(=O)C2(CCCC2)NC(=O)[C@@H]2CCCN2C(=O)[C@H](CCc2ccc(C(F)(F)F)c(Cl)c2)NC(=O)CN(C)C(=O)[C@@H]1Cc1ccc(C(F)(F)F)cc1 [PP0273] ([NMeL]I[NcPrGly][Aze][NPrPhe(4-CF3)][Sar][hPhe(3-Cl-4-CF3)]P[Ac5c][NMeGly(cPent)][NMeD]-Morpholide; lactam N-11) |  | 560 pM | B (a compound having 3 or more and less than 10 is denoted as B) | C (A compound having a KD ratio of 0.1 or more and less than 3 is denoted as C) |  |  |
| CCCN1C(=O)[C@@H]2CCN2C(=O)CN(C)C(=O)[C@H]([C@@H](C)CC)NC(=O)[C@H](CC(C)C)N(C)C(=O)C[C@@H](C(=O)N(C)C)N(C)C(=O)[C@H](C2CCCC2)N(C)C(=O)C2(CCC2)NC(=O)[C@@H]2CC(F)(F)CN2C(=O)[C@H](CCc2ccc(C(F)(F)F)c(Cl)c2)NC(=O)CN(C)C(=O)[C@@H]1Cc1ccc(C(F)(F)F)cc1 [PP0443] ([NMeL]I[Sar][Aze][NPrPhe(4-CF3)][Sar][hPhe(3-Cl-4-CF3)][Pro(4,4-F2)][Ac4c][NMeGly(cPent)][NMeD]-NMe2; lactam N-11) |  | 27 pM |  |  | C (A compound having a KD ratio of 0.1 or more and less than 3 is denoted as C) | C (A compound having a KD ratio of 0.1 or more and less than 3 is denoted as C) |
| C=CCCN1C(=O)[C@@H]2CCN2C(=O)[C@H](C)N(C)C(=O)[C@H]([C@@H](C)CC)NC(=O)[C@H](CC(C)C)N(C)C(=O)C[C@@H](C(=O)N2CCOCC2)N(C)C(=O)[C@H](C2CCCC2)N(C)C(=O)C2(CCCC2)NC(=O)[C@@H]2CCCN2C(=O)[C@H](CCc2ccc(C(F)(F)F)c(Cl)c2)NC(=O)CN(C)C(=O)[C@@H]1Cc1ccc(C(F)(F)F)cc1 [PP0115] ([NMeL]I[NMeA][Aze][X23][Sar][hPhe(3-Cl-4-CF3)]P[Ac5c][NMeGly(cPent)][NMeD]-Morpholide; lactam N-11) |  | 210 pM | C (A compound having a KD ratio of 0.1 or more and less than 3 is denoted as C) | C (A compound having a KD ratio of 0.1 or more and less than 3 is denoted as C) |  |  |
| CCCN1C(=O)[C@@H]2CCN2C(=O)[C@H](C)N(C)C(=O)[C@H]([C@@H](C)CC)NC(=O)[C@H](CC(C)C)N(C)C(=O)C[C@@H](C(=O)N(C)C)N(C)C(=O)[C@H](C2CCCC2)N(C)C(=O)C2(CCCC2)NC(=O)[C@@H]2C[C@@H](OCC)CN2C(=O)[C@H](CCc2ccc(C(F)(F)F)c(Cl)c2)NC(=O)CN(C)C(=O)[C@@H]1Cc1ccc(C(F)(F)F)cc1 [PP0438] ([NMeL]I[NMeA][Aze][NPrPhe(4-CF3)][Sar][hPhe(3-Cl-4-CF3)][Hyp](Et)[Ac5c][NMeGly(cPent)][NMeD]-NMe2; lactam N-11) |  | 30 pM |  |  | C (A compound having a KD ratio of 0.1 or more and less than 3 is denoted as C) | C (A compound having a KD ratio of 0.1 or more and less than 3 is denoted as C) |

More lines, main results first:

| Kd ([1]; SPR, Single Cycle Kinetics) | Kd [1, 4] | SMILES | HRAS/KRAS (ratio of KD value for HRAS to KD value for KRAS) [2] | NRAS/KRAS (ratio of KD value for NRAS to KD value for KRAS) [3] | HRAS/KRAS (ratio of KD value with respect to HRAS to KD value with respect to KRAS) [2] | NRAS/KRAS (ratio of KD value with respect to NRAS to KD value with respect to KRAS) [3] |
| --- | --- | --- | --- | --- | --- | --- |
| 290 pM |  | CC[C@@H]1C[C@H]2C(=O)NC3(CCCC3)C(=O)N(C)[C@@H](C3CCCC3)C(=O)N(C)[C@H](C(=O)N(C)CC)CC(=O)N(C)[C@@H](C)C(=O)N[C@@H]([C@@H](C)CC)C(=O)N(C)CC(=O)N(C)[C@H]3C/C=C\CCN(C3=O)[C@@H](Cc3ccc(C(F)(F)F)cc3)C(=O)N(C)CC(=O)N[C@@H](CCc3cc(F)c(C(F)(F)F)c(F)c3)C(=O)N2C1 [PP2271] | A (a compound having 10 or more and less than 20 is denoted as A) | A (a compound having 10 or more and less than 20 is denoted as A) |  |  |
| 370 pM |  | CCO[C@@H]1C[C@H]2C(=O)NC3(CC(C)(C)C3)C(=O)N(C)[C@@H](C(CC)CC)C(=O)N(C)[C@H](C(=O)N(C)C)CC(=O)N(C)[C@@H](CC3CC3)C(=O)N[C@@H]([C@@H](C)CC)C(=O)N(C)CC(=O)N(C)[C@H]3C/C=C\CCN(C3=O)[C@@H](Cc3ccc(C(F)(F)F)cc3)C(=O)N(C)CC(=O)N[C@@H](CCc3ccc(C(F)(F)F)c(OC)c3)C(=O)N2C1 [PP2155] | B (a compound having 3 or more and less than 10 is denoted as B) | A (a compound having 10 or more and less than 20 is denoted as A) |  |  |
| 470 pM |  | CCO[C@@H]1C[C@H]2C(=O)NC3(CC(C)(C)C3)C(=O)N(C)[C@@H](C(CC)CC)C(=O)N(C)[C@H](C(=O)N(C)C)CC(=O)N(C)[C@@H](CC(C)C)C(=O)N[C@@H]([C@@H](C)CC)C(=O)N(C)CC(=O)N(C)[C@H]3C/C=C\CCN(C3=O)[C@@H](Cc3ccc(C(F)(F)F)cc3)C(=O)N(C)CC(=O)N[C@@H](CCc3ccc(Cl)c(Cl)c3)C(=O)N2C1 [PP2176] | A (a compound having 10 or more and less than 20 is denoted as A) | AA (a compound having 20 or more is denoted as AA) |  |  |
| 400 pM |  | CCO[C@@H]1C[C@H]2C(=O)NC3(CC(C)(C)C3)C(=O)N(C)[C@@H](C(CC)CC)C(=O)N(C)[C@H](C(=O)N3CCCC3)CC(=O)N(C)[C@@H](COC)C(=O)N[C@@H]([C@@H](C)CC)C(=O)N(C)CC(=O)N(C)[C@H]3C/C=C\CCN(C3=O)[C@@H](Cc3ccc(C(F)(F)F)cc3)C(=O)N(C)CC(=O)N[C@@H](CCc3ccc(Cl)c(Cl)c3)C(=O)N2C1 [PP2174] | A (a compound having 10 or more and less than 20 is denoted as A) | AA (a compound having 20 or more is denoted as AA) |  |  |
| 130 pM |  | CCC[C@H]1C(=O)N[C@@H](C2CCCC2)C(=O)N(C)CC(=O)N(C)[C@H]2C/C=C\CCN(C2=O)[C@@H](Cc2ccc(C)cc2)C(=O)N(C)CC(=O)N[C@@H](CCc2cc(F)c(C(F)(F)F)c(F)c2)C(=O)N2CC3(CC3)C[C@H]2C(=O)NC2(CC(C)(C)C2)C(=O)N(C)[C@@H](CC(C)(C)C)C(=O)N(C)[C@H](C(=O)N(C)C)CC(=O)N1C [PP2999] | A (a compound having 10 or more and less than 20 is denoted as A) | AA (a compound having 20 or more is denoted as AA) |  |  |
| 230 pM |  | CCO[C@@H]1CCN2C(=O)[C@H](CCc3cc(F)c(C(F)(F)F)c(F)c3)NC(=O)CN(C)C(=O)[C@H](Cc3ccc(C(F)(F)F)cc3)N3CCCC[C@@H](C3=O)N(C)C(=O)CN(C)C(=O)[C@H]([C@@H](C)CC)NC(=O)[C@H](CC(C)C)N(C)C(=O)C[C@@H](C(=O)N3CCOCC3)N(C)C(=O)[C@H](C3CCCC3)N(C)C(=O)C3(CCC3)NC(=O)[C@H]12 [PP1079] | B (a compound having 3 or more and less than 10 is denoted as B) | B (a compound having 3 or more and less than 10 is denoted as B) |  |  |
| 82 pM |  | CC[C@H](C)[C@@H]1NC(=O)[C@H](C2CC2)N(C)C(=O)C[C@@H](C(=O)N(C)CC)N(C)C(=O)[C@H](C2CCCC2)N(C)C(=O)C2(CCC2)NC(=O)[C@@H]2C[C@H](C)CN2C(=O)[C@H](CCc2ccc(C(F)(F)F)c(OC)c2)NC(=O)CN(C)C(=O)[C@H](Cc2ccc(C(F)(F)F)cc2)N2CC/C=C\C[C@@H](C2=O)N(C)C(=O)CN(C)C1=O [PP2069] | A (a compound having 10 or more and less than 20 is denoted as A) | AA (a compound having 20 or more is denoted as AA) |  |  |
| 380 pM |  | CCO[C@@H]1C[C@H]2C(=O)NC3(CCCC3)C(=O)N(C)[C@@H](C3CCCC3)C(=O)N(C)[C@H](C(=O)N(C)C)CC(=O)N(C)[C@@H](CC(C)C)C(=O)N[C@@H]([C@@H](C)CC)C(=O)N(C)CC(=O)N(C)[C@H]3C/C=C\CCN(C3=O)[C@@H](Cc3ccc(C(F)(F)F)cc3)C(=O)N(C)CC(=O)N[C@@H](CCc3cc(F)c(Cl)c(F)c3)C(=O)N2C1 [PP2269] | A (a compound having 10 or more and less than 20 is denoted as A) | A (a compound having 10 or more and less than 20 is denoted as A) |  |  |
